Data taken from ChEMBL document CHEMBL1127692, “Application of the three-dimensional structures of protein target molecules in structure-based drug design” (J Med Chem, 1994).
Values after ≈ are worked out from the molar mass of the structure shown. One block for each compound: values may come before it.

Legend:
[1] = molecular target: T1, Human immunodeficiency virus type 1 protease (Human immunodeficiency virus 1, UniProt Q72874)
Description: Inhibition of HIV-1 protease

Thymidylate synthase = Thymidylate synthase (Homo sapiens, UniProt P04818)
Description: Compound was evaluated for the inhibitory constant of human thymidylate synthase

[2] = molecular target: Human immunodeficiency virus type 1 protease (Human immunodeficiency virus 1) (UniProt Q72874)
[3] = molecular target: T1, Human immunodeficiency virus type 1 protease; remark: listed apart in the source
Description: Effective concentration of compound for inhibition of HIV 1 protease was determined

[4] = molecular target: T1, Human immunodeficiency virus type 1 protease; remark: listed apart in the source
Description: Compound was evaluated for the inhibitory activity against HIV-1 protease

[5] = Compound was evaluated for the solubility at the pH 7.4; format: ADME; conditions: buffer
L1210 = test: cells; conditions: Mus musculus
Description: Compound was evaluated for the inhibitory activity of L1210 cells

Carbonic anhydrase 2 = Carbonic anhydrase 2 (Homo sapiens, UniProt P00918)
Description: Compound was evaluated for the inhibitory constant towards Human Carbonic anhydrase II (HCA II)

Thymidylate synthase, sequence (P04818 whole entry): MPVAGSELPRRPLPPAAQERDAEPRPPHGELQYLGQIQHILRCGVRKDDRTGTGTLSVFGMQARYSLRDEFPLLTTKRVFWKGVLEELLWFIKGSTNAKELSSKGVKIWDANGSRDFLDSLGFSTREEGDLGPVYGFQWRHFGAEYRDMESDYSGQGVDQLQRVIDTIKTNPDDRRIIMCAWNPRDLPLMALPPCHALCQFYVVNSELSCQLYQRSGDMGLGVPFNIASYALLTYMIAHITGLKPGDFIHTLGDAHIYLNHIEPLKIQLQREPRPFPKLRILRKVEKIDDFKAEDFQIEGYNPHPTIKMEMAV

SMILES: CC(=O)N[C@H](C(=O)N[C@H](C(=O)N[C@@H](Cc1ccccc1)C(O)[C@H](Cc1ccccc1)NC(=O)[C@@H](NC(=O)[C@@H](NC(C)=O)C(C)C)C(C)C)C(C)C)C(C)C
- IC50 [1]: 10 nM

SMILES: CN(Cc1ccc(S(=O)(=O)N2CCOCC2)cc1)c1ccc2c3c(cccc13)C(N)=N2
- Ki (Thymidylate synthase): 2 nM

SMILES: CC(=O)N[C@@H](Cc1ccccc1)C(O)[C@H](Cc1ccccc1)NC(C)=O
- IC50 [1]: > 10000 nM

SMILES: CN(Cc1ccc(S(=O)(=O)c2ccccc2)cc1)c1ccc2c3c(cccc13)C(N)=N2
- Thymidine reversal [2]: 2.3

SMILES: CNC1=Nc2ccc(N(C)Cc3ccc(S(=O)(=O)N4CCOCC4)cc3)c3c(C)ccc1c23
- IC50 (L1210): 150 nM
- Thymidine reversal [2]: 12.7
- Ki (Thymidylate synthase): 2 nM

SMILES: CC(C)[C@H](NC(=O)N(C)Cc1ccccn1)C(=O)N[C@@H](Cc1ccccc1)[C@@H](O)[C@H](O)[C@H](Cc1ccccc1)NC(=O)[C@@H](NC(=O)N(C)Cc1ccccn1)C(C)C
- EC50 [3]: 60 nM
- Ki [4]: 0.18 nM
- solubility [5]: 4.7 µM (≈ 3.74 µg/mL)

SMILES: CC(C)[C@H](NC(=O)N(C)Cc1ccccn1)C(=O)N[C@@H](Cc1ccccc1)CC(O)[C@H](Cc1ccccc1)NC(=O)[C@@H](NC(=O)N(C)Cc1ccccn1)C(C)C (single isomer, unassigned)
- Ki (Carbonic anhydrase 2): 17 nM

SMILES: CC(C)[C@H](NC(=O)OCc1ccccc1)C(=O)N[C@@H](Cc1ccccc1)[C@H](O)[C@H](O)[C@H](Cc1ccccc1)NC(=O)[C@@H](NC(=O)OCc1ccccc1)C(C)C
- IC50 [1]: 0.22 nM

SMILES: CC(C)[C@H](NC(=O)OCc1ccccc1)C(=O)N[C@@H](Cc1ccccc1)C(O)C(O)[C@H](Cc1ccccc1)NC(=O)[C@@H](NC(=O)OCc1ccccc1)C(C)C (single isomer, unassigned; 13)
- IC50 [1]: 0.38 nM

SMILES: CN(Cc1ccc(S(=O)(=O)N2CCOCC2)cc1)c1ccc2c3c(cccc13)C(=N)N2
- IC50 (L1210): 300 nM
- Thymidine reversal [2]: 8.5

SMILES: CC(C)(C)OC(=O)N[C@@H](Cc1ccccc1)[C@@H](O)[C@H](O)[C@H](Cc1ccccc1)NC(=O)OC(C)(C)C
- IC50 [1]: 280 nM

SMILES: CC(C)[C@H](NC(=O)OCc1ccccc1)C(=O)N[C@@H](Cc1ccccc1)C(O)C(O)[C@H](Cc1ccccc1)NC(=O)[C@@H](NC(=O)OCc1ccccc1)C(C)C (single isomer, unassigned; 11)
- IC50 [1]: 0.22 nM

SMILES: CC(C)(C)OC(=O)N[C@@H](Cc1ccccc1)[C@H](O)[C@@H](O)[C@H](Cc1ccccc1)NC(=O)OC(C)(C)C
- IC50 [1]: 40 nM

SMILES: CCN(Cc1ccc(S(=O)(=O)N2CCNCC2)cc1)c1ccc2c3c(cccc13)C(=O)N2
- Thymidine reversal [2]: 1.1

More lines, now with the values ahead:

- IC50 [1]: 3000 nM
SMILES: CC(C)(C)OC(=O)N[C@@H](Cc1ccccc1)C(O)[C@H](Cc1ccccc1)NC(=O)OC(C)(C)C

- IC50 [1]: > 10000 nM
SMILES: N[C@@H](Cc1ccccc1)C(O)[C@@H](N)Cc1ccccc1

- EC50 [3]: 20 nM
- Ki [4]: 0.09 nM
- solubility [5]: 3.1 µM (≈ 2.38 µg/mL)
SMILES: CC(C)[C@H](NC(=O)OCc1ccccn1)C(=O)N[C@@H](Cc1ccccc1)[C@H](O)[C@H](O)[C@H](Cc1ccccc1)NC(=O)[C@@H](NC(=O)OCc1ccccn1)C(C)C

- IC50 [1]: 590 nM
SMILES: CC(C)[C@H](N)C(=O)N[C@@H](Cc1ccccc1)C(O)[C@H](Cc1ccccc1)NC(=O)[C@@H](N)C(C)C

- EC50 [3]: 120 nM
- Ki [4]: 0.16 nM
SMILES: CC(C)[C@H](NC(=O)OCc1ccccn1)C(=O)N[C@@H](Cc1ccccc1)[C@H](O)[C@@H](O)[C@H](Cc1ccccc1)NC(=O)[C@@H](NC(=O)OCc1ccccn1)C(C)C

- EC50 [3]: 280 nM
- Ki [4]: 1.66 nM
- solubility [5]: 292 µM (≈ 232 µg/mL)
SMILES: CC(C)[C@H](NC(=O)N(C)Cc1ccccn1)C(=O)N[C@@H](Cc1ccccc1)[C@H](O)[C@@H](O)[C@H](Cc1ccccc1)NC(=O)[C@@H](NC(=O)N(C)Cc1ccccn1)C(C)C [A-76928]

- EC50 [3]: 70 nM
- Ki [4]: 0.15 nM
- Ki (Carbonic anhydrase 2): 140 nM
- solubility [5]: 256 µM (≈ 204 µg/mL)
SMILES: CC(C)[C@H](NC(=O)N(C)Cc1ccccn1)C(=O)N[C@@H](Cc1ccccc1)[C@H](O)[C@H](O)[C@H](Cc1ccccc1)NC(=O)[C@@H](NC(=O)N(C)Cc1ccccn1)C(C)C [A-77003]

- EC50 [3]: 50 nM
- Ki [4]: 0.19 nM
- solubility [5]: 0.27 µM (≈ 0.208 µg/mL)
SMILES: CC(C)[C@H](NC(=O)OCc1ccccn1)C(=O)N[C@@H](Cc1ccccc1)[C@@H](O)[C@H](O)[C@H](Cc1ccccc1)NC(=O)[C@@H](NC(=O)OCc1ccccn1)C(C)C
